SMILES strings stand for the structures.

This data set deals with T1, ATP-binding cassette sub-family C member 4 (Homo sapiens, UniProt O15439).
T1 sequence (O15439 whole entry): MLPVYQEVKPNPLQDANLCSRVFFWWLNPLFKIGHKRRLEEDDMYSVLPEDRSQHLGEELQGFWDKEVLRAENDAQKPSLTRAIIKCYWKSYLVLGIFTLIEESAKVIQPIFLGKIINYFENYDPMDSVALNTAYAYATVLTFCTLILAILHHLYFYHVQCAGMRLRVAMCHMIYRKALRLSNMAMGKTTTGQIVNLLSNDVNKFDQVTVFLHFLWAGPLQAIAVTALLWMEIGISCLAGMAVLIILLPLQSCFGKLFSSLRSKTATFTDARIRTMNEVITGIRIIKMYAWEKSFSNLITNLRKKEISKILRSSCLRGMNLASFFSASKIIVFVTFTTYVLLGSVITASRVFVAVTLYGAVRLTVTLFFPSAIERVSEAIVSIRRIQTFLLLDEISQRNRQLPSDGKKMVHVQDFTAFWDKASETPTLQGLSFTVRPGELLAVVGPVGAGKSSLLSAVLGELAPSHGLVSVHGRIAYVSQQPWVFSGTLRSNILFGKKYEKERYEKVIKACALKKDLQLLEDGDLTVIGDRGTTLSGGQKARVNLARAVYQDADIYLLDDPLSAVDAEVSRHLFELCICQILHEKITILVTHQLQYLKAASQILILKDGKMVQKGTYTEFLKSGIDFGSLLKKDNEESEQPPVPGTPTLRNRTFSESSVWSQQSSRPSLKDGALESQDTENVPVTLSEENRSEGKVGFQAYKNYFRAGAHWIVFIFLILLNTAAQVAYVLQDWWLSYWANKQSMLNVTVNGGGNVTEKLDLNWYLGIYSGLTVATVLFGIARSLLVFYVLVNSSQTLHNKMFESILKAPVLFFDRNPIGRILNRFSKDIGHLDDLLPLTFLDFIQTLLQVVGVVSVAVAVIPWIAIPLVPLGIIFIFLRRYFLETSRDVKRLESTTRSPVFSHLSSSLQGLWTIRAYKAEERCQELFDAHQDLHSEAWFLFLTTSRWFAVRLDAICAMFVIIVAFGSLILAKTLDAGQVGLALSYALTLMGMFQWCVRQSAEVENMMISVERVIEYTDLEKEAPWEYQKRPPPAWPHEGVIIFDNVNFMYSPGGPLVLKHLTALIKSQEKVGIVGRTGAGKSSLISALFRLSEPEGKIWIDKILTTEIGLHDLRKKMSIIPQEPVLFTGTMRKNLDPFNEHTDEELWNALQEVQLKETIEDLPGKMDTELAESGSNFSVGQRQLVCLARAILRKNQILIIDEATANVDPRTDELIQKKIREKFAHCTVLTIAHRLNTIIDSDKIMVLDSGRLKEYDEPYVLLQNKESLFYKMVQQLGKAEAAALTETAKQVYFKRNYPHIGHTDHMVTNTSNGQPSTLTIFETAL
Description: TP_TRANSPORTER: efflux in CEM-r1 cells. The class given is functional, cell-based.

Regarding `Cc1cn([C@H]2C[C@H](N=[N+]=[N-])[C@@H](COP(=O)(O)O)O2)c(=O)[nH]c1=O` [AZIDOTHYMIDINE MONOPHOSPHATE], the Activity result was “substrate [+]”.
`Nc1ncnc2c1ncn2CCOCP(=O)(O)O` [ADEFOVIR]: the Activity entry was “substrate [+]”.

The record behind these values is ChEMBL document CHEMBL2074462, “MRP4: A previously unidentified factor in resistance to nucleoside-based antiviral drugs” (Nat Med, 1999).
